Measurements reported in paper PMC9231138, “Dihydrotanshinone I Enhances Cell Adhesion and Inhibits Cell Migration in Osteosarcoma U−2 OS Cells through CD44 and Chemokine Signaling” (Molecules, 2022).

Columns and labels:
[1] = system: HeLa cells; assay: MTT cell proliferation assay, HeLa cells; type: cell-based; details: Homo sapiens, 24 h, read-out: IC50 HeLa cells (24 h)
Experimental: The effects of tanshinones (DS−1 to DS−5) on the proliferation of U−2 OS cells, HeLa cells, and NRK−49F cells were measured by the classical MTT method with minor modifications as follows. Cells were seeded at 5000 per well in 96-well plates, with each group being repeated in 5 wells, and were incubated for 12 h. DS−1 to DS−5 were added at gradient concentrations, then incubated for 24 and 48 h, respectively. Then, 20 μL MTT solution (solved in PBS, 5 mg/mL) was added to every well, and the cells were further incubated at 37 °C for 4 h until a purple precipitate was visible. The plate was centrifuged at 1000 rpm for 1 min; the supernatant was suctioned, and 150 μL of DMSO was added per well; the plate was shaken on a shaker protected from light for 15 min. We placed the plate in an enzyme marker and measured the absorbance values at a 490 nm wavelength.

[2] = system: CDK2; assay: RT-PCR CDK2 mRNA in U−2 OS cells; type: cell-based, human; details: 24 h
Experimental: (§1) Total RNA within cells was extracted by the RNAeasy™ Animal Long RNA Isolation Kit with Spin Column (Shanghai, Beyotime); the concentrations and OD260/OD280 and OD230/OD260 values were measured by NanoDrop. Five micrograms of RNA was used for reverse transcription; each sample was diluted to 16 μL, and 4 μL of synthesized premix solution (5×) was added, then the mixtures were placed in a 42 °C water bath for 10 min, then an 80 °C water bath for 10 min to deactivate reverse transcriptase. After reverse transcription, each sample was diluted to 140 μL. PCR amplification was carried out by the ABI700 real-time PCR system, and the amplification reaction was detected with a SYBR probe. After PCR, actin and GAPDH were used as internal references, and the relative standard curve method (2^−ΔΔcT) determined the relative expression of mRNA.

[3] = system: p21; assay: RT-PCR p21 mRNA in U−2 OS cells; type: cell-based, human; details: 24 h
Experimental: as §1

[4] = system: E-cadherin; assay: RT-PCR E-cadherin mRNA in U−2 OS cells; type: cell-based, human; details: 24 h
Experimental: as §1

[5] = system: MT-MMP-1; assay: RT-PCR MT-MMP-1 mRNA in U−2 OS cells; type: cell-based, human
Experimental: as §1

[6] = system: p53; assay: Western blot p53; type: cell-based, human; details: DS−1 2.5, 5.0, and 7.5 µM, 24 h
Experimental: Sample preparation: U−2 OS cells seeded in 10 cm Petri dishes were collected and washed with ice-cold PBS and RIPA lysis buffer with PMAF; phosphatase inhibitor was added, and the tubes were placed on ice for 30 min and vortexed for 30 s at intervals of 10 min. The samples were centrifuged at 12,000 g at 4 °C for 15 min, and the supernatants were collected in new centrifuge tubes. The protein samples were placed on ice, and the concentration of each protein sample was measured by the BCA kit (Thermo). The protein concentration was adjusted to the same by milli Q ultrapure water.
Loading and running the gel: Equal amounts of protein were loaded into the wells of the 10% SDS-PAGE gel, along with molecular weight markers, and 15 μg of total protein from the cell lysate was loaded. We then ran the gel for 45 min at 200 V.
Transferring the protein: We prepared the transfer stack as follows: negative plate, sponge, filter paper, gel, PVDF membrane, filter paper, sponge, and positive plate. The transfer was for 90 min at 200 mA.
(§2) Antibody staining: We blocked the membrane for 1 h at room temperature using 5% blocking solution, then incubated the membrane with appropriate dilutions of the primary antibody in the blocking solution overnight at 4 °C. […] Images were acquired using darkroom development techniques for chemiluminescence and analyzed by Image J.

[7] = system: FOXO1; assay: FOXO1 by immunofluorescence and immunoblotting; type: cell-based, human; details: DS−1 3.125, 6.25, and 12.5 μM
Experimental: Figure 3 DS−1 inhibited the expression of transcription factor FOXO1 in U−2 OS cells. (A) U−2 OS cells were treated with DS−1 at 0, 3.125, 6.25, and 12.5 μM, and the changes in FOXO1 were analyzed by immunofluorescent staining, followed by confocal microscopy imaging. (B) U−2OS cells were treated with DS−1 at 0, 3.125, 6.25, and 12.5 μM, and FOXO1 and pFOXO1 were analyzed by Western blot; the changes were presented in histograms (C,D). (E) U−2 OS cells were treated with DS−1 at 6.25 μM for 0, 12, 24, and 48 h, then FOXO1 was analyzed by Western blot, and the changes are presented in the histogram (F). (G) The pFOXO1/FOXO1 value is shown in the histogram. […]
Sample preparation: U−2 OS cells seeded in 10 cm Petri dishes were collected and washed with ice-cold PBS and RIPA lysis buffer with PMAF; phosphatase inhibitor was added, and the tubes were placed on ice for 30 min and vortexed for 30 s at intervals of 10 min. […] The protein samples were placed on ice, and the concentration of each protein sample was measured by the BCA kit (Thermo). […]
as §2

Cc1cccc2c3c(ccc12)C1=C(C(=O)C3=O)[C@@H](C)CO1 [DS−1, 15,16-Dihydrotanshinone I]
IC50 [1]: 15.5 ± 0.98 µM
CDK2 mRNA, fold of the control group ([2]; first of three DS−1 doses (2.5 µM per Fig. 5 legend)): 0.85 ± 0.08 fold
CDK2 mRNA, fold of the control group ([2]; second of three DS−1 doses (5.0 µM per Fig. 5 legend)): 0.80 ± 0.16 fold
CDK2 mRNA, fold of the control group ([2]; third of three DS−1 doses (7.5 µM per Fig. 5 legend)): 0.66 ± 0.07 fold
p21 mRNA, fold of the control group ([3]; DS−1 2.5 µM): 10.1 ± 3.9 fold
p21 mRNA, fold of the control group ([3]; DS−1 5.0 µM): 56.8 ± 8.2 fold
p21 mRNA, fold of the control group ([3]; DS−1 7.5 µM): 90.2 ± 6.7 fold
E-cadherin mRNA, fold of the control group ([4]; DS−1 2.5 µM): 1.21 ± 0.16 fold
E-cadherin mRNA, fold of the control group ([4]; DS−1 5.0 µM): 1.26 ± 0.25 fold
E-cadherin mRNA, fold of the control group ([4]; DS−1 7.5 µM): 1.61 ± 0.16 fold
MT-MMP-1 mRNA expression, fold ([5]; DS−1 2.5 µM): 0.92 ± 0.14 fold
MT-MMP-1 mRNA expression, fold ([5]; DS−1 5.0 µM): 0.72 ± 0.03 fold
MT-MMP-1 mRNA expression, fold ([5]; DS−1 7.5 µM): 0.07 ± 0.13 fold
level of p53 [6]: significantly increased
expression of FOXO1 [7]: reduced
